{
  "source": "BindingDB's records for doi:10.1021/jm801654y",
  "about": "(Harvard Medical School, 2009)",
  "data": [
    {"biological_target": "T1, Histone deacetylase (Plasmodium falciparum (isolate 3D7), UniProt Q7K6A1)", "T1 sequence (Q7K6A1 whole entry)": "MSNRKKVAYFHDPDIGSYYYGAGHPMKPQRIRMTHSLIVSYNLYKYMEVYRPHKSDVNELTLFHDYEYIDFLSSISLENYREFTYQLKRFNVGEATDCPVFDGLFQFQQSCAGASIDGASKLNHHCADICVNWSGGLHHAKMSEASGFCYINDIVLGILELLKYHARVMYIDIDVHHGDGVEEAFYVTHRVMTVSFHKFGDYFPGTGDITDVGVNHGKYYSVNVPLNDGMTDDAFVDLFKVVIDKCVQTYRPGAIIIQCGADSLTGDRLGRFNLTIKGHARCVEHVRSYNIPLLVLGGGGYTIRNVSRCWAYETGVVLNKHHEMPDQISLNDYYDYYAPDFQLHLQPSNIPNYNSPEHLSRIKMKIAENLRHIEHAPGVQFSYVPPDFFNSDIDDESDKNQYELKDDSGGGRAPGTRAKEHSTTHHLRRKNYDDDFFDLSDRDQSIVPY", "assay": "pfHDAC-1 Enzyme Assay", "conditions": "pH 7.5; 23 °C", "experimental": "Recombinant pfHDAC-1 was assayed with substrate in the presence of test compound. […] The reaction was allowed to proceed at room temperature for 15 hrs in sealed plates to minimize evaporation. […] Fluorescence was monitored after 1 hr at excitation and emission wavelengths of 360 and 460 nm, respectively. Kinetic constants were calculated by non-linear regression fitting of the data to the Michaelis-Menten equation. Kinetic and inhibition values reported are the mean of three determinations +/- standard deviation.", "units": {"IC50": "nM"}, "values": [
      {"compound": "O=C(CCCCC(=O)NN=Cc1ccc(B(O)O)cc1)NO", "note": "[benzylidenehydrazine derivative, 24]", "IC50": 45},
      {"compound": "O=C(CCCCCC(=O)NN=Cc1cc2c(cc1Br)OCO2)NO", "note": "[benzylidenehydrazine derivative, 10]", "IC50": 20},
      {"compound": "O=C(CCCCCC(=O)NN=Cc1cccc(O)c1)NO", "note": "[benzylidenehydrazine derivative, 8]", "IC50": 59},
      {"compound": "COc1cc(C=NNC(=O)CCCCCC(=O)NO)c(Br)cc1O", "note": "[benzylidenehydrazine derivative, 17]", "IC50": 59},
      {"compound": "O=C(CCCCCC(=O)NN=Cc1ccc(-n2ccnc2)cc1)NO", "note": "[benzylidenehydrazine derivative, 19]", "IC50": 15},
      {"compound": "O=C(CCCCC(=O)NN=Cc1ccc(O)cc1Br)NO", "note": "[benzylidenehydrazine derivative, 21]", "IC50": 106},
      {"compound": "O=C(CCCCCCC(=O)NN=Cc1cc(O)ccc1O)NO", "note": "[benzylidenehydrazine derivative, 9]", "IC50": 110},
      {"compound": "O=C1CCc2c(ccc3ccccc23)O1", "note": "[1,2-Dihydro-3H-naphtho[2,1-b]pyran-3-one]", "IC50": "> 10000"},
      {"compound": "O=C(CCCCCC(=O)NN=Cc1c(O)ccc2ccccc12)NO", "note": "[benzylidenehydrazine derivative, 14]", "IC50": 41},
      {"compound": "COc1cc(C=NNC(=O)CCCCC(=O)NO)c(Br)cc1O", "note": "[benzylidenehydrazine derivative, 23]", "IC50": 59},
      {"compound": "COc1ccc(Br)c(C=NNC(=O)CCCCCC(=O)NO)c1", "note": "[benzylidenehydrazine derivative, 12]", "IC50": 22},
      {"compound": "O=C(CCCCCCC(=O)NN=Cc1c(O)cc(O)cc1O)NO", "note": "[benzylidenehydrazine derivative, 11]", "IC50": 43},
      {"compound": "CN(C)c1ccc(C=NNC(=O)CCCCCC(=O)NO)c(O)c1", "note": "[benzylidenehydrazine derivative, 13]", "IC50": 37},
      {"compound": "O=C(CCCCCC(=O)NN=Cc1ccccc1Cl)NO", "note": "[benzylidenehydrazine derivative, 18]", "IC50": 90},
      {"compound": "O=C(CCCCCC(=O)NN=Cc1cccnc1Br)NO", "note": "[benzylidenehydrazine derivative, 20]", "IC50": 36},
      {"compound": "O=C(CCCCCC(=O)NN=Cc1ccccc1Br)NO", "note": "[benzylidenehydrazine derivative, 16]", "IC50": 37},
      {"compound": "O=C(CCCCC(=O)NN=Cc1cc(O)ccc1Br)NO", "note": "[benzylidenehydrazine derivative, 22]", "IC50": 89},
      {"compound": "O=C(CCCCCC(=O)NN=Cc1cc(O)ccc1Br)NO", "note": "[benzylidenehydrazine derivative, 15]", "IC50": 49}
    ]}
  ]
}
